Test [1] has as its system Bombyx mori. Description: Insecticidal activity against fourth-instar larval stage of Bombyx mori Shunrei x Shongetsu assessed as fourth-instar larval duration time at 30 ppm administered through artificial diet (reference value: 5.1 +/- 0.2 days). It is filed as functional.
Test [2] concerns Bombyx mori. Description: Insecticidal activity against fourth-instar larval stage of Bombyx mori Shunrei x Shongetsu assessed as fourth-instar larval duration time at 100 ppm administered through artificial diet (reference value: 5.1 +/- 0.2 days). Format: functional.
The subject of test [3] is Bombyx mori. Description: Insecticidal activity against fourth-instar larval stage of Bombyx mori Shunrei x Shongetsu assessed as delay in increase of hemolymph 20-hydroxyecdysone level at 50 ppm administered through artificial diet measured for 5 days post third ecdysis by ELISA relative to acetone-treated control. It is filed as functional, organism-based. For orientation: An ELISA detects its analyte on a solid surface through an enzyme-linked reagent.

Calls of active or inactive are those of the source. No cut-off for these calls is given here.

Data on 13 compounds can be found in ChEMBL document CHEMBL3046499, “Synthesis of 2,2-diphenylpropionate derivatives and their effects on larval growth of the silkworm” (2000).

With `CCN1CCN(CCOC(=O)C(C)(c2ccccc2)c2ccccc2)CC1`, the Time in the test on Bombyx mori [1] came out at 5.1 days; in the test on Bombyx mori [2], 6.2 days.
With `CCN1CCN(CCCCCCOC(=O)C(C)(c2ccccc2)c2ccccc2)CC1`, the Time was 4.7 days with Bombyx mori [1] and 4.5 days with Bombyx mori [2].
Turning to `CCN1CCN(CCCOC(=O)C(C)(c2ccccc2)c2ccccc2)CC1`, the Time in the test with Bombyx mori [1] was 6.5 days; with Bombyx mori [2], 7.2 days. Also, in the test with Bombyx mori [3], the result was Active.
With `CN1[C@@H]2CC[C@H]1CC(OC(=O)[C@H](CO)c1ccccc1)C2` (stereo partly drawn) [ENDO-ATROPINE], the Time in the test with Bombyx mori [1] amounted to 5.2 days; in the test on Bombyx mori [2], 6.3 days.
In the same order, the values of `CN1CCN(CCCOC(=O)C(C)(c2ccccc2)c2ccccc2)CC1` are 6.9 days and 7.5 days.
Taken in the same sequence, the figures for `CC(C(=O)OCCCN1CCCCC1)(c1ccccc1)c1ccccc1` were 5.1 days and 7.4 days.
Turning to `CC(C(=O)OCCCN1CCCC1)(c1ccccc1)c1ccccc1`, the Time with Bombyx mori [1] is 5.2 days; in the test with Bombyx mori [2] it was 6 days.
Taken in the same sequence, the figures for `CCN1CCN(CCCCOC(=O)C(C)(c2ccccc2)c2ccccc2)CC1` were 5.6 days and 6.1 days.
Turning to `CCN1CCN(CCCCCOC(=O)C(C)(c2ccccc2)c2ccccc2)CC1`, the Time in the test with Bombyx mori [1] stood at 5.1 days; in the test with Bombyx mori [2] it was 5.8 days.
Taken in the same sequence, the figures for `CCN(CC)CCCOC(=O)C(C)(c1ccccc1)c1ccccc1` were 5.1 days and 5.2 days.
With `CN1C2CCC1CC(OC(=O)C(C)(c1ccccc1)c1ccccc1)C2` (stereo unspecified), the Time in the test on Bombyx mori [1] stood at 6.1 days.
Turning to `CC(C(=O)OCCCN1CCOCC1)(c1ccccc1)c1ccccc1`, the Time was 5 days in the test with Bombyx mori [1] and 6.1 days with Bombyx mori [2].
On to `CN(CCCOC(=O)C(C)(c1ccccc1)c1ccccc1)C1CCCCC1`, for which the Time in the test on Bombyx mori [1] is 5 days; with Bombyx mori [2], 5.6 days.
